Results taken from patent publication US7595398B2, “N-(5-membered aromatic ring)-amido anti-viral compounds” (SmithKline Beecham Corporation, priority 2005, dated 2009).
Counter-ions that a name gives are not always drawn.

System: HCV replicon I389luc-ubi-neo/NS3-3′/ET in ET (Huh-lucubineo-ET) cells; screening for HCV RNA dependent RNA polymerase
Assay: Replicon Assay (luciferase, ET cell line Huh-lucubineo-ET)
Assay type: cell-based
Conditions: Hepatitis C virus; inhibition of replication relative to no compound control; test concentration of 10 μM according to the fitted equation; luciferase 48-72 hours
How it was run: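 Huh-derived ET cells stably carrying an I389luc-ubi-neo/NS3-3′/ET HCV replicon with a luciferase-ubiquitin-neomycin phosphotransferase fusion and adaptive NS3-5B mutations were cultured in DMEM with 10% fetal calf serum and 250 μg/mL G418. Cells were seeded at 0.5-1.0×10^4 cells/well in 96 well plates and given compound after 24 hrs. Luciferase was read 48-72 hours later with Bright-Glo reagents, and replication inhibition was expressed relative to untreated controls.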

**Q.** Which inhibition at 10 µM does the source give for O=C(NC1CC1)c1ccc(-c2csc(NC(=O)[C@@H]3CCCN3C(=O)OCc3ccc(F)cc3)n2)cc1 [Compound 5361, 2-[4-(4-Cyclopropylcarbamoyl-phenyl)-thiazol-2-ylcarbamoyl]-pyrrolidine-1-carboxylic acid 4-fluoro-benzyl ester] here?
**A.** 98.4%

**Q.** For COc1c(F)c(F)c(-c2csc(NC(=O)[C@@H]3CCCN3C(=O)OCc3ccccc3)n2)c(F)c1F [Compound 5020, 2-[4-(2,3,5,6-Tetrafluoro-4-methoxy-phenyl)-thiazol-2-ylcarbamoyl]-pyrrolidine-1-carboxylic acid benzyl ester], which inhibition at 10 µM is on record?
**A.** 58.2%

**Q.** With O=C(NC1CC1)c1ccc(-c2csc(NC(=O)C3CCCN3C(=O)OCc3cccnc3)n2)cc1 (stereo not shown) [Compound 5320, 2-[4-(4-Cyclopropylcarbamoyl-phenyl)-thiazol-2-ylcarbamoyl]-pyrrolidine-1-carboxylic acid pyridin-3-ylmethyl ester] as the compound, how does the inhibition at 10 µM read?
**A.** 99.8%

**Q.** Which inhibition at 10 µM does the source give for O=C(CCCCC1SC[C@@H]2NC(=O)N[C@H]12)NCCCCCC(=O)Nc1ccc(-c2csc(NC(=O)C3CCCN3C(=O)OCc3ccccc3)n2)cc1 (stereo partly shown) [Compound 5374, 2-[4-(4-{6-[5-(2-Oxo-hexahydro-thieno[3,4-d]imidazol-6-yl)-pentanoylamino]-hexanoylamino}-phenyl)-thiazol-2-ylcarbamoyl]-pyrrolidine-1-carboxylic acid benzyl ester] here?
**A.** 99.3%

**Q.** For O=C(NC1CC1)c1ccc(-c2csc(NC(=O)[C@@H]3CCCN3C(=O)OCc3ccccc3)n2)nc1 [Compound 5355, 2-[4-(5-Cyclopropylcarbamoyl-pyridin-2-yl)-thiazol-2-ylcarbamoyl]-pyrrolidine-1-carboxylic acid benzyl ester], which inhibition at 10 µM is on record?
**A.** 99.9%

**Q.** With O=C(Nc1nc(CSc2nc(-c3ccc(F)cc3)cs2)cs1)[C@@H]1CCCN1C(=O)OCc1ccccc1 [Compound 5061, 2-{4-[4-(4-Fluoro-phenyl)-thiazol-2-ylsulfanylmethyl]-thiazol-2-ylcarbamoyl}-pyrrolidine-1-carboxylic acid benzyl ester] as the compound, how does the inhibition at 10 µM read?
**A.** 88.4%

**Q.** For O=C(NC1CC1)c1ccc(-c2csc(NC(=O)[C@@H]3CCCN3C(=O)NCc3ccccc3)n2)cc1 [Compound 5342, Pyrrolidine-1,2-dicarboxylic acid 1-benzylamide 2-{[4-(4-cyclopropylcarbamoyl-phenyl)-thiazol-2-yl]-amide}], which inhibition at 10 µM is on record?
**A.** 95.2%

**Q.** Which inhibition at 10 µM does the source give for CC(C)NC(=O)c1ccc(-c2csc(NC(=O)C3CCCN3C(=O)OCc3ccccc3)n2)cc1 (stereo not shown) [Compound 5117, 2-[4-(4-Isopropylcarbamoyl-phenyl)-thiazol-2-ylcarbamoyl]-pyrrolidine-1-carboxylic acid benzyl ester] here?
**A.** 99.8%

**Q.** Which inhibition at 10 µM does the source give for COc1ccc(-c2csc(NC(=O)[C@@H]3CCCN3C(=O)OCc3ccccc3)n2)cc1Cl [Compound 5090, 2-[4-(3-Chloro-4-methoxy-phenyl)-thiazol-2-ylcarbamoyl]-pyrrolidine-1-carboxylic acid benzyl ester] here?
**A.** 99.8%

**Q.** COc1ccc(-c2csc(NC(=O)[C@@H]3CCCN3C(=O)OCc3ccccc3)n2)cc1OC [Compound 5054, 2-[4-(3,4-Dimethoxy-phenyl)-thiazol-2-ylcarbamoyl]-pyrrolidine-1-carboxylic acid benzyl ester] was tested. Which inhibition at 10 µM did it give?
**A.** 99.3%

**Q.** How did the inhibition at 10 µM turn out when O=C(Nc1nc(-c2cccc([N+](=O)[O-])c2)cs1)[C@@H]1CCCN1C(=O)OCc1ccccc1 [Compound 5008, 2-[4-(3-Nitro-phenyl)-thiazol-2-ylcarbamoyl]-pyrrolidine-1-carboxylic acid benzyl ester; hydrobromide] was run?
**A.** 63%

**Q.** O=C(Nc1nc(-c2ccc(NS(=O)(=O)c3ccccc3)cc2)cs1)C1CCCN1C(=O)OCc1ccccc1 (stereo not shown) [Compound 5027, 2-[4-(4-Benzenesulfonylamino-phenyl)-thiazol-2-ylcarbamoyl]-pyrrolidine-1-carboxylic acid benzyl ester] was tested. Which inhibition at 10 µM did it give?
**A.** 99.7%

**Q.** With O=C(NC1CC1)c1ccc(-c2csc(NC(=O)[C@@H]3[C@@H](O)CCN3C(=O)OCc3ccccc3)n2)cc1 [Compound 5376, 2-[4-(4-Cyclopropylcarbamoyl-phenyl)-thiazol-2-ylcarbamoyl]-3-hydroxy-pyrrolidine-1-carboxylic acid benzyl ester] as the compound, how does the inhibition at 10 µM read?
**A.** 96%

**Q.** Which inhibition at 10 µM does the source give for O=C(Nc1nc(-c2ccc(F)cc2)cs1)[C@@H]1CCCN1C(=O)OCc1ccccc1 [Compound 5098, 2-[4-(4-Fluoro-phenyl)-thiazol-2-ylcarbamoyl]-pyrrolidine-1-carboxylic acid benzyl ester] here?
**A.** 97.2%

**Q.** With CC(=O)Nc1ccc(-c2csc(NC(=O)[C@@H]3CCCN3C(=O)OCc3ccccc3)n2)cc1 [Compound 5048, 2-[4-(4-Acetylamino-phenyl)-thiazol-2-ylcarbamoyl]-pyrrolidine-1-carboxylic acid benzyl ester] as the compound, how does the inhibition at 10 µM read?
**A.** 100%

**Q.** For Cc1sc2nc(SCc3csc(NC(=O)[C@@H]4CCCN4C(=O)OCc4ccccc4)n3)n(C)c(=O)c2c1C [Compound 5032, 2-[4-(3,5,6-Trimethyl-4-oxo-3,4-dihydro-thieno[2,3-d]pyrimidin-2-ylsulfanylmethyl)-thiazol-2-ylcarbamoyl]-pyrrolidine-1-carboxylic acid benzyl ester], which inhibition at 10 µM is on record?
**A.** 38.6%

**Q.** For CCCOc1ccc(-c2cnc(NC(=O)[C@@H]3CCCN3C(=O)OCc3ccccc3)s2)cc1 [Compound 5011, 2-[5-(4-Propoxy-phenyl)-thiazol-2-ylcarbamoyl]-pyrrolidine-1-carboxylic acid benzyl ester], which inhibition at 10 µM is on record?
**A.** 32.9%

**Q.** Which inhibition at 10 µM does the source give for O=C(NC1CC1)c1ccc(-c2csc(NC(=O)[C@@H]3CSCN3C(=O)OCc3ccccc3)n2)cc1 [Compound 5327, 4-[4-(4-Cyclopropylcarbamoyl-phenyl)-thiazol-2-ylcarbamoyl]-thiazolidine-3-carboxylic acid benzyl ester] here?
**A.** 100%

**Q.** For O=C(Nc1ncc(Cc2cccc(Cl)c2)s1)[C@@H]1CCCN1C(=O)OCc1ccccc1 [Compound 5029, 2-[5-(3-Chloro-benzyl)-thiazol-2-ylcarbamoyl]-pyrrolidine-1-carboxylic acid benzyl ester], which inhibition at 10 µM is on record?
**A.** 0.52%

**Q.** How did the inhibition at 10 µM turn out when O=C(Nc1nc(-c2ccc(S(=O)(=O)NC3CCCC3)cc2)cs1)C1CCCN1C(=O)OCc1ccccc1 (stereo not shown) [Compound 5354, 2-[4-(4-Cyclopentylsulfamoyl-phenyl)-thiazol-2-ylcarbamoyl]-pyrrolidine-1-carboxylic acid benzyl ester] was run?
**A.** 87.5%

**Q.** With O=C(NC1CC1)c1ccc(-c2csc(NC(=O)[C@@H]3COCN3C(=O)OCc3ccccc3)n2)cc1 [Compound 5313, 4-[4-(4-Cyclopropylcarbamoyl-phenyl)-thiazol-2-ylcarbamoyl]-oxazolidine-3-carboxylic acid benzyl ester] as the compound, how does the inhibition at 10 µM read?
**A.** 100%

**Q.** For CNC(=O)c1ccc(-c2csc(NC(=O)[C@@H]3CCCN3C(=O)OCc3ccccc3)n2)cc1 [Compound 5105, 2-[4-(4-Methylcarbamoyl-phenyl)-thiazol-2-ylcarbamoyl]-pyrrolidine-1-carboxylic acid benzyl ester], which inhibition at 10 µM is on record?
**A.** 100%

**Q.** Which inhibition at 10 µM does the source give for COC(=O)N1CCC[C@H]1C(=O)Nc1nc(-c2ccc(C(=O)NC3CC3)cc2)cs1 [Compound 5373, 2-[4-(4-Cyclopropylcarbamoyl-phenyl)-thiazol-2-ylcarbamoyl]-pyrrolidine-1-carboxylic acid methyl ester] here?
**A.** 81.5%

**Q.** For O=C(O)c1ccc(-c2cnc(NC(=O)[C@@H]3CCCN3C(=O)OCc3ccccc3)s2)cc1 [Compound 5353, 2-[5-(4-Carboxy-phenyl)-thiazol-2-ylcarbamoyl]-pyrrolidine-1-carboxylic acid benzyl ester], which inhibition at 10 µM is on record?
**A.** 50.2%

**Q.** Which inhibition at 10 µM does the source give for O=C(Nc1cccc(-c2cnc(NC(=O)[C@@H]3CCCN3C(=O)OCc3ccccc3)s2)c1)C1CC1 [Compound 5108, 2-{5-[3-(Cyclopropanecarbonyl-amino)-phenyl]-thiazol-2-ylcarbamoyl}-pyrrolidine-1-carboxylic acid benzyl ester] here?
**A.** 98.9%

**Q.** With O=C(NC1CC1)c1ccc(-c2csc(NC(=O)[C@@H]3CCCN3C(=O)Cc3ccccc3)n2)cc1 [Compound 5325, 1-Phenylacetyl-pyrrolidine-2-carboxylic acid [4-(4-cyclopropylcarbamoyl-phenyl)-thiazol-2-yl]-amide] as the compound, how does the inhibition at 10 µM read?
**A.** 86.9%

**Q.** Which inhibition at 10 µM does the source give for O=C1CC(c2csc(NC(=O)[C@@H]3CCCN3C(=O)OCc3ccccc3)n2)C2(CCCCC2)O1 (stereo partly shown) [Compound 5044, 2-[4-(2-Oxo-1-oxa-spiro[4.5]dec-4-yl)-thiazol-2-ylcarbamoyl]-pyrrolidine-1-carboxylic acid benzyl ester] here?
**A.** 16.9%

**Q.** For O=C(Nc1ccncc1)c1ccc(-c2csc(NC(=O)[C@@H]3CCCN3C(=O)OCc3ccccc3)n2)cc1 [Compound 5302, 2-{4-[4-(Pyridin-4-ylcarbamoyl)-phenyl]-thiazol-2-ylcarbamoyl}-pyrrolidine-1-carboxylic acid benzyl ester], which inhibition at 10 µM is on record?
**A.** 100%

**Q.** With COc1ccc(-c2csc(NC(=O)[C@@H]3CCCN3C(=O)OCc3ccccc3)n2)cc1[N+](=O)[O-] [Compound 5091, 2-[4-(4-Methoxy-3-nitro-phenyl)-thiazol-2-ylcarbamoyl]-pyrrolidine-1-carboxylic acid benzyl ester] as the compound, how does the inhibition at 10 µM read?
**A.** 100%

**Q.** COCCCNC(=O)c1ccc(-c2csc(NC(=O)[C@@H]3CCCN3C(=O)OCc3ccccc3)n2)cc1 [Compound 5370, 2-{4-[4-(3-Methoxy-propylcarbamoyl)-phenyl]-thiazol-2-ylcarbamoyl}-pyrrolidine-1-carboxylic acid benzyl ester] was tested. Which inhibition at 10 µM did it give?
**A.** 100%

**Q.** How did the inhibition at 10 µM turn out when Cc1ccc(-c2csc(NC(=O)[C@@H]3CCCN3C(=O)OCc3ccccc3)n2)c(C)c1 [Compound 5021, 2-[4-(2,4-Dimethyl-phenyl)-thiazol-2-ylcarbamoyl]-pyrrolidine-1-carboxylic acid benzyl ester] was run?
**A.** 97%
